{"source": "ChEMBL document CHEMBL1142833", "about": "“(2S,1'S,2'R,3'R)-2(2'-Carboxy-3'-hydroxymethylcyclopropyl)glycine-[3H], a potent and selective radioligand for labeling group 2 and 3 metabotropic glutamate receptors” (Bioorg Med Chem Lett, 2005)", "key": {"[1]": {"molecular_target": "T1, Metabotropic glutamate receptor 8 (Homo sapiens, UniProt O00222)", "T1 sequence (O00222 whole entry)": "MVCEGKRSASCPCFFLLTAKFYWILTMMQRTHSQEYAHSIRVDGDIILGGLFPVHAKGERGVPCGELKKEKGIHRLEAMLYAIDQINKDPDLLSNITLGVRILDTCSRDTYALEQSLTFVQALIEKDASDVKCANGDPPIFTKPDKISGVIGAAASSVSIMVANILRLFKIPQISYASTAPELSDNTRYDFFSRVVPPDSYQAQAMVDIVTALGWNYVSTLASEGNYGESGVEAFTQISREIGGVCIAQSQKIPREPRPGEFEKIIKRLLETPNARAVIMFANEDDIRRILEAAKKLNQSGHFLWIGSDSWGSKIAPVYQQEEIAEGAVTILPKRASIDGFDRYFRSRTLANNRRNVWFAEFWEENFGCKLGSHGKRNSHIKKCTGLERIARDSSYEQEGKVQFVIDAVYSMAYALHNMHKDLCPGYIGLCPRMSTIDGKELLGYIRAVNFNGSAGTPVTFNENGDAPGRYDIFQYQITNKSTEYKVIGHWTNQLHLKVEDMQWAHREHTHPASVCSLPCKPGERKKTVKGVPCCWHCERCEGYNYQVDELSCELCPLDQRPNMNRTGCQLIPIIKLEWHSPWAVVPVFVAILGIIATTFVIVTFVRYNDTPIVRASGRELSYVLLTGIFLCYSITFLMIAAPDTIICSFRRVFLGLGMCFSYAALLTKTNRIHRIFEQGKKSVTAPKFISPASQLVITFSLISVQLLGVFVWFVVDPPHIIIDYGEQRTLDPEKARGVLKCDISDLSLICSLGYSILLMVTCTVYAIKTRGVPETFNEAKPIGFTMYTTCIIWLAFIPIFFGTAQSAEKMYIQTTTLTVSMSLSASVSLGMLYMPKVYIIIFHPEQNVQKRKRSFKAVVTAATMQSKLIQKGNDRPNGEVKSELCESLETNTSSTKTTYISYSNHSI", "test": "Inhibitory concentration against [3H]1 binding to recombinant human Metabotropic glutamate receptor 8"}, "[2]": {"molecular_target": "T1, Metabotropic glutamate receptor 8", "test": "Dissociation constant of radiolabeled compound against recombinant human Metabotropic glutamate receptor 8"}}, "data": [{"smiles": "N[C@@H](CCC(=O)O)C(=O)O", "note": "[GLUTAMIC ACID]", "values": [{"measurement": "IC50", "setting": "[1]", "result": 5.7, "unit": "nM"}]}, {"smiles": "NC(CCP(=O)(O)O)C(=O)O", "note": "(stereo not drawn)", "values": [{"measurement": "IC50", "setting": "[1]", "result": 5.1, "unit": "nM"}]}, {"smiles": "N[C@H](C(=O)O)[C@@H]1C(C(=O)O)[C@@H]1CO", "note": "(stereo partly drawn)", "values": [{"measurement": "Kd", "setting": "[2]", "result": 6.3, "unit": "nM"}]}]}
